Our source for the EC50 and Akt/PKB phosphorylation values is patent publication US20130143902A1, “COMPOSITIONS AND METHODS OF TREATING A PROLIFERATIVE DISEASE WITH A QUINAZOLINONE DERIVATIVE” (GILEAD CALISTOGA LLC, priority 2011, published 2013).

The test system of assay [1] is B Cell Malignancies. The assay can be described thus: Cellular viability, B cell malignancies. It is filed as cell-based. As to conditions: N = 7. An excerpt:
(§1) Cellular viability and pAkt activity were used to determine effects of Compounds A, C, and D in solid tumor, B-cell malignancies, and T-cell malignancies.

The subject of assay [2] is LN18. The assay can be described thus: pAkt pathway inhibition, LN18. The assay is classed as cell-based. As to conditions: Homo sapiens, LN-18; LN18, Glioma.
In assay [3] the test system is KM-12. Description: pAkt pathway inhibition, KM-12. The assay is classed as cell-based. As to conditions: Homo sapiens, KM12; KM-12, Colon.
The test system of assay [4] is pAkt in B Cell Malignancies. Description: pAkt activity, B cell malignancies. The assay is classed as cell-based. Conditions: N = 7.
Excerpt: as §1

The test system of assay [5] is pAkt in T Cell Malignancies. Description: pAkt activity, T cell malignancies. The assay is classed as cell-based. Conditions: N = 7.
Excerpt: as §1

Assay [6] has as its system LN229. The assay can be described thus: pAkt pathway inhibition, LN229. It is filed as cell-based. Conditions: Homo sapiens, LN-229; LN229, Glioma.
Assay [7] has as its system Akt/PKB phosphorylation in primary T-ALL tumors. The assay can be described thus: Akt/PKB phosphorylation in primary T-ALL tumors. The assay is classed as cell-based, human. Conditions: primary T-ALL tumors from four patients. How it is done: Cell lysates (from cell lines or thymocytes) were prepared on ice in M-PER Mammalian Protein Extraction reagent (Pierce) containing a cocktail of protease and phosphatase inhibitors as described in Swat, W. et al., Essential role of PI3 Kdelta and PI3 Kgamma in thymocyte survival, Blood 107, 2415-2422 (2006). Equal amounts of total protein from lysates were separated using SDS-PAGE, transferred to PVDF membrane (Immobilon-P, Millipore). Membranes were incubated overnight incubation with appropriate primary antibodies. Bound antibodies were visualized with HRP-conjugated secondary antibodies and ECL chemistry (SuperPico West, Pierce).

For assay [8], the system named is SF-295. Description: pAkt pathway inhibition, SF-295. The assay is classed as cell-based. Conditions: Homo sapiens; SF-295, CNS.
The subject of assay [9] is BT549. Description: pAkt pathway inhibition, BT549. The assay is classed as cell-based. As to conditions: Homo sapiens, BT-549; BT549, Breast.

pEC50: −log10 of the molar value.

Consider `CC(Nc1ncnc2[nH]cnc12)c1nc2cccc(Cl)c2c(=O)n1-c1ccccc1` (stereo not drawn) [Compound A, 2-(1-(9H-purin-6-ylamino)ethyl)-5-chloro-3-phenylquinazolin-4(3H)-one], for which the results for the pEC50 in [1], in [4] and in [5] were 6.38, 6.74 and 6.51, respectively. In addition, the half-maximal effective concentration (EC50) (commonly the concentration needed to bring the measured effect to its halfway point) came out at 10 nM in [2]; 897 nM in assay [3]; 10 nM in [6]; 162 nM in assay [8]; 34 nM in assay [9]. The Akt/PKB phosphorylation result in [7] is “inhibition”.
